The record followed here is ChEMBL document CHEMBL1671682, “Inhibition of human immunodeficiency virus type 1 by triciribine involves the accessory protein nef” (Antimicrob Agents Chemother, 2010).

The test system of data set [1] is Human immunodeficiency virus 2. Briefly: Antiviral activity against Human immunodeficiency virus 2 CDC 310319 infected in phytohemagglutininin and interleukin-2-stimulated PBMC assessed as inhibition of viral Reverse transcriptase by [3H]TTP incorporation assay. The class given is functional, organism-based.
Data set [2] relates to Human immunodeficiency virus 2. Description: Antiviral activity against Human immunodeficiency virus 2 CDC 310342 infected in phytohemagglutininin and interleukin-2-stimulated PBMC assessed as inhibition of viral Reverse transcriptase by [3H]TTP incorporation assay. The class given is functional, organism-based.
Data set [3] relates to Simian immunodeficiency virus. Description: Antiviral activity against simian immunodeficiency virus Mac251 infected in phytohemagglutininin and interleukin-2-stimulated PBMC assessed as inhibition of viral Reverse transcriptase by [3H]TTP incorporation assay. The class given is functional, organism-based.
Data set [4] deals with Simian immunodeficiency virus. Briefly: Antiviral activity against simian immunodeficiency virus 69R infected in phytohemagglutininin and interleukin-2-stimulated PBMC assessed as inhibition of viral Reverse transcriptase by [3H]TTP incorporation assay. The class given is functional, organism-based.
In data set [5] the test system is PBMC. Description: Cytotoxicity against human PBMC assessed as cell viability at 10 uM by MTS assay. The class given is cell-based. (In general: Formazan colour is commonly taken as a measure of viable cells.)
For data set [6], the system named is PBMC. Briefly: Cytotoxicity against human PBMC assessed as cell viability at 1 uM by MTS assay. The class given is cell-based.
The next data set deals with CEM-SS. Briefly: Cytotoxicity against human CEM-SS cells by MTS assay. The class given is functional, cell-based.
For another data set, the system named is H9. Description: Cytotoxicity against human H9 cells by MTS assay. The class given is functional, cell-based.
The subject of data set [7] is Human immunodeficiency virus 1. Briefly: Antiviral activity against Human immunodeficiency virus 1 D1 harboring Tyr127His mutation in nef protein infecting in CEM-SS cells assessed as inhibition of viral Reverse transcriptase by [3H]TTP incorporation assay.
The subject of data set [8] is Human immunodeficiency virus 1. Briefly: Antiviral activity against Human immunodeficiency virus 1 A7 harboring Tyr127His mutation in nef protein infecting in CEM-SS cells assessed as inhibition of viral Reverse transcriptase by [3H]TTP incorporation assay.
In data set [9] the test system is Human immunodeficiency virus 1. Briefly: Antiviral activity against Human immunodeficiency virus 1 A12 harboring Tyr127His, Asp174Asn and Arg178Lys mutations in nef protein infecting in CEM-SS cells assessed as inhibition of viral Reverse transcriptase by [3H]TTP incorporation assay.
For data set [10], the system named is Human immunodeficiency virus 1. Briefly: Antiviral activity against Human immunodeficiency virus 1 H10 harboring Tyr127His, Gly140Glu, Glu149Lys, Asp174Asn and Arg178Lys mutations in nef protein infecting in CEM-SS cells assessed as inhibition of viral Reverse transcriptase by [3H]TTP incorporation assay.
Data set [11] in a line: Cytotoxicity against human AA5 cells by MTS assay. The class given is cell-based.

For the compound `Cc1cn([C@H]2C[C@H](N=[N+]=[N-])[C@@H](CO)O2)c(=O)[nH]c1=O` [ZIDOVUDINE], the half-inhibitory concentration (IC50) is 0.0002 µM in data set [1]; 0.001 µM in [2]; 0.01 µM in data set [3]; 0.0005 µM in [4]; greater than 0.1 µM in the data set with CEM-SS; greater than 0.1 µM in the data set with H9. Besides, the IC50 is 0.015 µM in data set [7]; 0.028 µM in data set [8]; 0.08 µM in data set [9]; 0.04 µM in data set [10]; greater than 0.1 µM in [11]. The Activity entry with PBMC [5] and in the data set on PBMC [6] was “Non-toxic” throughout.

As a reminder, the IC50 is the concentration needed to halve the response being measured.
